{
  "source": "ChEMBL document CHEMBL6071160",
  "about": "“Identification of a novel 10-hydroxyevodiamine prodrug as a potent topoisomerase inhibitor with improved aqueous solubility for treatment of hepatocellular carcinoma” (Eur J Med Chem, 2024)",
  "key": {"HepG2": {"tested_on": "HepG2", "assay": "Antiproliferative activity against human HepG2 cells assessed as inhibition of cell proliferation incubated for 72 hrs by MTT assay", "format": "functional, cell-based", "conditions": "HepG2, 72 h"}, "[1]": {"assay": "Aqueous solubility of the compound […] measured after 72 hrs in shaking by HPLC analysis", "format": "physicochemical"}, "[2]": {"assay": "Drug resistance index, ratio of IC50 for antiproliferative activity against human SMMC-7721 cells to antiproliferative activity against human Doxorubicin-resistant SMMC-7721 cells", "format": "functional"}, "[3]": {"assay": "Chemical stability of compound at pH 5.5 assessed as residual rate measured after 2 days", "format": "physicochemical", "conditions": "buffer, time 2 day, read-out: Stability"}, "[4]": {"assay": "Half life in Sprague-Dawley rat at 10 mg/kg, ip measured upto 24 hrs by LC-MS/MS analysis", "format": "ADME, organism-based", "conditions": "in vivo"}, "[5]": {"assay": "Tmax in Sprague-Dawley rat at 10 mg/kg, ip measured upto 24 hrs by LC-MS/MS analysis", "format": "ADME, organism-based", "conditions": "in vivo"}, "Huh-7 [6]": {"tested_on": "Huh-7", "assay": "In vivo antitumor activity against human Huh-7 cells subcutaneously injected into BALB/C nude mouse assessed as tumor growth inhibition at 40 mg/kg, ip administered once other day measured after 14 days", "format": "functional", "conditions": "Huh-7, 336 h, time 14 day, read-out: TGI"}, "Huh-7 [7]": {"tested_on": "Huh-7", "assay": "Induction of cell cycle arrest in human Huh-7 cells assessed as accumulation of cells at G1 phase 20 nM measured after 24 hrs by flow cytometric assay (reference value: 63.01%)", "format": "functional"}, "Huh-7 [8]": {"tested_on": "Huh-7", "assay": "Induction of cell cycle arrest in human Huh-7 cells assessed as accumulation of cells at G2 phase 20 nM measured after 24 hrs by flow cytometric assay (reference value: 13.66%)", "format": "functional"}, "Huh-7 [9]": {"tested_on": "Huh-7", "assay": "Induction of cell cycle arrest in human Huh-7 cells assessed as accumulation of cells at S phase 40 nM measured after 24 hrs by flow cytometric assay (reference value: 23.33%)", "format": "functional"}, "SK-HEP1 [10]": {"tested_on": "SK-HEP1", "assay": "Induction of cell cycle arrest in human SK-HEP1 cells assessed as accumulation of cells at G1 phase 80 nM measured after 24 hrs by flow cytometric assay (reference value: 47.55%)", "format": "functional"}, "SK-HEP1 [11]": {"tested_on": "SK-HEP1", "assay": "Induction of cell cycle arrest in human SK-HEP1 cells assessed as accumulation of cells at G2 phase 80 nM measured after 24 hrs by flow cytometric assay (reference value: 22.41%)", "format": "functional"}, "SK-HEP1 [12]": {"tested_on": "SK-HEP1", "assay": "Induction of cell cycle arrest in human SK-HEP1 cells assessed as accumulation of cells at S phase 80 nM measured after 24 hrs by flow cytometric assay (reference value: 30.04%)", "format": "functional"}, "SK-HEP1 [13]": {"tested_on": "SK-HEP1", "assay": "Induction of cell cycle arrest in human SK-HEP1 cells assessed as accumulation of cells at G1 phase 20 nM measured after 24 hrs by flow cytometric assay (reference value: 47.55%)", "format": "functional"}, "SK-HEP1 [14]": {"tested_on": "SK-HEP1", "assay": "Induction of cell cycle arrest in human SK-HEP1 cells assessed as accumulation of cells at S phase 20 nM measured after 24 hrs by flow cytometric assay (reference value: 30.04%)", "format": "functional"}, "SK-HEP1 [15]": {"tested_on": "SK-HEP1", "assay": "Induction of cell cycle arrest in human SK-HEP1 cells assessed as accumulation of cells at G2 phase 40 nM measured after 24 hrs by flow cytometric assay (reference value: 22.41%)", "format": "functional"}, "Huh-7 [16]": {"tested_on": "Huh-7", "assay": "Induction of apoptosis in human Huh-7 cells assessed as viable cells at 20 nM measured after 24 hrs by Annexin-V-FITC/PI analysis (reference value: 97.46%)", "format": "functional", "conditions": "read-out: Activity"}, "Huh-7 [17]": {"tested_on": "Huh-7", "assay": "Induction of apoptosis in human Huh-7 cells assessed as early apoptotic cells at 20 nM measured after 24 hrs by Annexin-V-FITC/PI analysis (reference value: 1.04%)", "format": "functional"}, "SK-HEP1 [18]": {"tested_on": "SK-HEP1", "assay": "Induction of apoptosis in human SK-HEP1 cells assessed as viable cells at 80 nM measured after 24 hrs by Annexin-V-FITC/PI analysis (reference value: 97.20%)", "format": "functional", "conditions": "read-out: Activity"}, "SK-HEP1 [19]": {"tested_on": "SK-HEP1", "assay": "Induction of apoptosis in human SK-HEP1 cells assessed as late apoptotic cells at 80 nM measured after 24 hrs by Annexin-V-FITC/PI analysis (reference value: 0.64%)", "format": "functional"}, "SK-HEP1 [20]": {"tested_on": "SK-HEP1", "assay": "Induction of apoptosis in human SK-HEP1 cells assessed as viable cells at 20 nM measured after 24 hrs by Annexin-V-FITC/PI analysis (reference value: 97.20%)", "format": "functional", "conditions": "read-out: Activity"}, "SK-HEP1 [21]": {"tested_on": "SK-HEP1", "assay": "Induction of apoptosis in human SK-HEP1 cells assessed as late apoptotic cells at 20 nM measured after 24 hrs by Annexin-V-FITC/PI analysis (reference value: 0.64%)", "format": "functional"}, "SK-HEP1 [22]": {"tested_on": "SK-HEP1", "assay": "Induction of apoptosis in human SK-HEP1 cells assessed as necrotic cells at 20 nM measured after 24 hrs by Annexin-V-FITC/PI analysis (reference value: 0.70%)", "format": "functional"}, "SK-HEP1 [23]": {"tested_on": "SK-HEP1", "assay": "Induction of apoptosis in human SK-HEP1 cells assessed as early apoptotic cells at 40 nM measured after 24 hrs by Annexin-V-FITC/PI analysis (reference value: 1.45%)", "format": "functional"}, "SK-HEP1 [24]": {"tested_on": "SK-HEP1", "assay": "Induction of apoptosis in human SK-HEP1 cells assessed as late apoptotic cells at 40 nM measured after 24 hrs by Annexin-V-FITC/PI analysis (reference value: 0.64%)", "format": "functional"}, "SK-HEP1 [25]": {"tested_on": "SK-HEP1", "assay": "Induction of apoptosis in human SK-HEP1 cells assessed as necrotic cells at 40 nM measured after 24 hrs by Annexin-V-FITC/PI analysis (reference value: 0.70%)", "format": "functional"}, "SK-HEP1 [26]": {"tested_on": "SK-HEP1", "assay": "Induction of apoptosis in human SK-HEP1 assessed as loss of mitochondrial membrane potential by measuring JC-1 stained cells at 40 nM measured after 24 hrs by JC-1 staining based flow cytometry (reference value: 0.49%)", "format": "functional"}, "Huh-7 [27]": {"tested_on": "Huh-7", "assay": "Induction of apoptosis in human Huh-7 cells assessed as ROS generation by measuring DCFH2-DA stained cells at 20 nM measured after 24 hrs […] (reference value: 0.45%)", "format": "functional"}, "Huh-7 [28]": {"tested_on": "Huh-7", "assay": "Induction of apoptosis in human Huh-7 cells assessed as ROS generation by measuring DCFH2-DA stained cells at 40 nM measured after 24 hrs […] (reference value: 0.45%)", "format": "functional"}, "SK-HEP1 [29]": {"tested_on": "SK-HEP1", "assay": "Induction of apoptosis in human SK-HEP1 cells assessed as ROS generation by measuring DCFH2-DA stained cells at 40 nM measured after 24 hrs […] (reference value: 0.14%)", "format": "functional"}, "Huh-7 [30]": {"tested_on": "Huh-7", "assay": "Inhibition of cell invasion in human Huh-7 cells assessed as decrease in number of cells migration into lower compartment at 40 nM measured after 24 hrs by transwell assay", "format": "functional, cell-based"}, "[31]": {"assay": "Toxicity in BALB/c nude mouse subcutaneously injected with human Huh-7 cells assessed as changes in lung tissue at 10 mg/kg, ip administered once daily measured after 14 days by H and E staining based assay", "format": "organism-based", "conditions": "in vivo, 336 h, time 14 day"}, "[32]": {"assay": "Toxicity in BALB/c nude mouse subcutaneously injected with human Huh-7 cells assessed as change in white blood cells at 10 mg/kg, ip administered once daily measured after 14 days", "format": "organism-based", "conditions": "in vivo, 336 h, time 14 day"}, "[33]": {"assay": "Toxicity in BALB/c nude mouse subcutaneously injected with human Huh-7 cells assessed as change in red blood cells at 10 mg/kg, ip administered once daily measured after 14 days", "format": "organism-based", "conditions": "in vivo, 336 h, time 14 day"}, "[34]": {"assay": "Toxicity in BALB/c nude mouse subcutaneously injected with human Huh-7 cells assessed as change in body weight at 40 mg/kg, ip administered once daily measured after 14 days", "format": "organism-based", "conditions": "in vivo, 336 h, time 14 day"}},
  "note": "Active and inactive are the calls of the source. The rule behind the calls is not given here.",
  "data": [
    {"smiles": "C[N+](C)(C)CCC(=O)Oc1ccc2[nH]c3c(c2c1)CCN1C(=O)c2cc(F)cc(F)c2N(c2cccc(F)c2)C31.[I-]", "note": "(stereo not given)", "values": [
      {"measurement": "IC50", "setting": "HepG2", "result": 90, "unit": "nM"},
      {"measurement": "solubility thermodynamic at 72 h", "setting": "[1]", "result": 967, "unit": "µg/mL"},
      {"measurement": "Ratio", "setting": "[2]", "result": 1.2},
      {"measurement": "remaining at 48 h", "setting": "[3]", "result": 55.8, "unit": "%"},
      {"measurement": "half-life", "setting": "[4]", "result": 3.15, "unit": "h"},
      {"measurement": "Tmax", "setting": "[5]", "result": 1.67, "unit": "h"},
      {"measurement": "inhibition in vivo at 40 mg/kg", "setting": "Huh-7 [6]", "result": 51.1, "unit": "%"},
      {"measurement": "Activity", "setting": "Huh-7 [7]", "result": 66.72, "unit": "%"},
      {"measurement": "Activity", "setting": "Huh-7 [8]", "result": 5.93, "unit": "%"},
      {"measurement": "Activity", "setting": "Huh-7 [9]", "result": 21.3, "unit": "%"},
      {"measurement": "Activity", "setting": "SK-HEP1 [10]", "result": 13.31, "unit": "%"},
      {"measurement": "Activity", "setting": "SK-HEP1 [11]", "result": 68.55, "unit": "%"},
      {"measurement": "Activity", "setting": "SK-HEP1 [12]", "result": 18.41, "unit": "%"},
      {"measurement": "Activity", "setting": "SK-HEP1 [13]", "result": 47.61, "unit": "%"},
      {"measurement": "Activity", "setting": "SK-HEP1 [14]", "result": 28.78, "unit": "%"},
      {"measurement": "Activity", "setting": "SK-HEP1 [15]", "result": 24.99, "unit": "%"},
      {"measurement": "viability at 0.02 µM", "setting": "Huh-7 [16]", "result": 96.6, "unit": "%"},
      {"measurement": "Activity", "setting": "Huh-7 [17]", "result": 1.31, "unit": "%"},
      {"measurement": "viability at 0.08 µM", "setting": "SK-HEP1 [18]", "result": 64.7, "unit": "%"},
      {"measurement": "Activity", "setting": "SK-HEP1 [19]", "result": 11.59, "unit": "%"},
      {"measurement": "viability at 0.02 µM", "setting": "SK-HEP1 [20]", "result": 97.2, "unit": "%"},
      {"measurement": "Activity", "setting": "SK-HEP1 [21]", "result": 0.71, "unit": "%"},
      {"measurement": "Activity", "setting": "SK-HEP1 [22]", "result": 0.47, "unit": "%"},
      {"measurement": "Activity", "setting": "SK-HEP1 [23]", "result": 5.11, "unit": "%"},
      {"measurement": "Activity", "setting": "SK-HEP1 [24]", "result": 1.31, "unit": "%"},
      {"measurement": "Activity", "setting": "SK-HEP1 [25]", "result": 0.49, "unit": "%"},
      {"measurement": "Activity", "setting": "SK-HEP1 [26]", "result": 1.49, "unit": "%"},
      {"measurement": "Activity", "setting": "Huh-7 [27]", "result": 0.73, "unit": "%"},
      {"measurement": "Activity", "setting": "Huh-7 [28]", "result": 1.09, "unit": "%"},
      {"measurement": "Activity", "setting": "SK-HEP1 [29]", "result": 13.95, "unit": "%"},
      {"measurement": "inhibition", "setting": "Huh-7 [30]", "result": "Active"},
      {"measurement": "Activity", "setting": "[31]", "result": "Non-Toxic"},
      {"measurement": "Activity", "setting": "[32]", "result": "Non-Toxic"},
      {"measurement": "Activity", "setting": "[33]", "result": "Non-Toxic"},
      {"measurement": "Activity", "setting": "[34]", "result": "Toxic"}
    ]}
  ]
}
